# Source: patent publication US12351565B2, “Aromatic compound and preparation method therefor and use thereof” (SHANGHAI JIANHE PHARMACEUTICAL & TECHNOLOGY CO. LTD., priority 2018, dated 2025)
# What was measured:
# [1] = In vivo pharmacokinetic experiment in rats; conditions: SD rats
# Experimental: Healthy male SD rats were randomly divided into groups with 3 rats in each group, and the test compounds were administrated intragastrically or by intravenous injection. See Table 8 below for specific arrangements:
# (§1) Each test compound was dissolved in physiological saline to prepare a certain concentration of solution for administration.
# (§2) One day before administration, the rats were fasted and allowed to drink freely for 12-14 h. The rats were fed 4 h after administration. 0.030 mL of blood was took from each animal each time through the orbit, and anticoagulated with EDTAK2 anticoagulation. The collection time points were as follows: in PO group, 5 min, 10 min, 15 min, 30 min, 1 h, 2 h, 4 h, 6 h, 8 h, 24 h after administration of test substance; in IV group, 2 min, 5 min, 15 min, 30 min, 1 h, 2 h, 4 h, 6 h, 8 h, 24 h after administration of test substance. After blood samples were collected, they were placed on ice and centrifuged to separate the plasma within 30 minutes (centrifugation conditions: 5000 rpm, 10 minutes, 4° C.). The sample were stored at −80° C. before analysis.
# C57 mice = assay: Forced swimming experiment, oral administration to mice; assay type: in vivo; conditions: inhibition of immobility time, C57 mice
# Outline: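 Male C57 mice (6 weeks) dosed once orally at 20 mg/kg in 0.9% NaCl, tested 1 h and 24 h later after a 10 min pre-swim the day before. Immobility over the last 4 min of a 6 min swim (water 23-25° C); inhibition rate (%) calculated against blank group at each time.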
# [2] = In vivo pharmacokinetic experiment in mice; conditions: C57 mice
# Experimental: Healthy male C57 mice were randomly divided into groups with 3 mice in each group, and the test compounds were administrated intragastrically or by intravenous injection. See Table 6 below for specific arrangements:
# as §1
# One day before administration, the mice were fasted and allowed to drink freely for 12-14 h. The mice were fed 4 h after administration.
# as §2, with “0.030” for “One day before administration, the rats were fasted and allowed to drink freely for 12-14 h. The rats were fed 4 h after administration. 0.030”, “EDTAK2.” for “EDTAK2 anticoagulation.”, “5” for “5 min, 10”
# [3] = male, rat, iv, 5 mg/kg i.v., plasma
# [4] = male, rat, po, 20 mg/kg p.o., plasma
# [5] = male, mouse, iv, 5 mg/kg i.v., plasma
# [6] = male, mouse, po, 20 mg/kg p.o., plasma
smiles,measurement,setting,value
"Cl.N[C@]1(c2ccc(C(F)(F)F)cc2)CCC[C@H](O)C1=O [Compound 51, (2S,6S)-2-amino-6-hydroxy-2-(4-(trifluoromethyl)phenyl)cyclohexane-1-one hydrochloride]",AUC0-t,"[1]; 5 mg/kg i.v., plasma",19871 ngh/mL
same,AUC0-∞,"[1]; 5 mg/kg i.v., plasma",20688 ngh/mL
same,F,[1]; 20 mg/kg p.o.,86%
same,AUC0-t,"[1]; 20 mg/kg p.o., plasma",68383 ngh/mL
same,AUC0-∞,"[1]; 20 mg/kg p.o., plasma",70298 ngh/mL
same,MRT,[1]; [3],6.15 h
same,half-life,[1]; [3],5.6 h
same,clearance,"[1]; male, rat, plasma, iv, 5 mg/kg i.v.",4.03 mL/min/kg
same,Vd,"[1]; male, rat, plasma, iv, 5 mg/kg i.v., read-out: Vss",1.49 L/kg
same,Cmax,[1]; [4],9350 ng/mL
same,MRT,[1]; [4],6.21 h
same,Tmax,[1]; [4],0.33 h
same,half-life,[1]; [4],4.74 h
same,1 h inhibition rate,C57 mice; forced swimming 1 h after single oral (intragastric) 20 mg/kg,66.9 ± 0.3%
same,24 h inhibition rate,C57 mice; forced swimming 24 h after single oral (intragastric) 20 mg/kg,38.6 ± 2.1%
same,AUC0-t,"[2]; 5 mg/kg i.v., plasma",6471 ngh/mL
same,AUC0-∞,"[2]; 5 mg/kg i.v., plasma",6567 ngh/mL
same,F,[2]; 20 mg/kg p.o. vs 5 mg/kg i.v.,68.0%
same,AUC0-t,"[2]; 20 mg/kg p.o., plasma",17539 ngh/mL
same,AUC0-∞,"[2]; 20 mg/kg p.o., plasma",17877 ngh/mL
same,MRT,[2]; [5],1.23 h
same,half-life,[2]; [5],1.79 h
same,clearance,"[2]; male, mouse, plasma, iv, 5 mg/kg i.v.",13.5 mL/min/kg
same,Vd,"[2]; male, mouse, plasma, iv, 5 mg/kg i.v., read-out: Vss",0.98 L/kg
same,Cmax,[2]; [6],7520 ng/mL
same,MRT,[2]; [6],3.59 h
same,Tmax,[2]; [6],5 min
same,half-life,[2]; [6],4.09 h
